Laboratory results from patent US20250019376A1, “CHROMANE AMIDINE MONOBACTAM ANTIBIOTICS” (priority 2021, published 2025).

Assays:
Conditions in all cases: lowest concentration inhibiting 95% of growth (OD600); with BLi relebactam 4 μg/mL; 22 hours, 35±2° C.
[1] = test system: Acinetobacter baumannii expressing TEM-1, AmpC, and Oxa-24/40 (CL6188); assay type: cell-based
Protocol: (§1) The concentrations of compounds required to inhibit the growth of various strains of bacteria were determined in an assay that assessed bacterial growth by measuring optical density at 600 nm (OD600). The bacterial strains tested included the clinical strains Escherichia co/i expressing NDM-1 (CLB30016), Klebsiella pneumoniae expressing KPC-1 (CL6569), Acinetobacter baumannii expressing TEM-1, AmpC, and Oxa-24/40 (CL6188) and Pseudomonas aeruginosa expressing AmpC (CL5701). All compounds were tested in the presence of a f3 lactamase inhibitor (BLi, Relebactam) in 384-well microplates.
(§2) The clinical strains were stored as frozen single use stocks, thawed and diluted into 1.1× cation-adjusted Mueller-Hinton 11 broth to achieve approximately 2×10^5 CFU/mL. Test compounds were dissolved in DMSO and diluted 1:50 in the assay, resulting in a final concentration range of 100 μM to 0.098 μM. On the day of the assay, 1 μL of test compound was added to the plate followed by 4 μL of 50 μg/mL BLi in MOPS buffer and 45 μL of diluted bacteria. Plates were centrifuged at 1000 rpm for 30 seconds, shaken at approximately 800 rpm for 1 minute, and incubated at 35±2° C. for 22 hours. The concentration of BLi used in the assay was 4 μg/mL. At the end of the incubation, absorbance at 600 nm was determined using a spectrophotometer. Inhibition was quantitated by identifying the lowest concentration of test compound that was required to inhibit […] of the growth of the bacteria.

[2] = test system: Klebsiella pneumoniae expressing KPC-1 (CL6569); test: Growth inhibitory concentration (OD600), K. pneumoniae CL6569; assay type: cell-based
Protocol: as §1, §2

[3] = test system: Pseudomonas aeruginosa expressing AmpC (CL5701); test: Growth inhibitory concentration (OD600), P. aeruginosa CL5701; assay type: cell-based
Protocol: as §1, §2

[4] = test system: Escherichia co/i expressing NDM-1 (CLB30016); test: Growth inhibitory concentration (OD600), E. coli CLB30016; assay type: cell-based, Escherichia coli
Protocol: as §1, §2

| SMILES | AB_CL6188 MITC95 [1] | KP_CL6569 MITC95 [2] | PA_CL5701 MITC95 [3] | EC_CLB30016 MITC95 [4] |
| --- | --- | --- | --- | --- |
| CC1(C)[C@H](NC(=O)/C(=N\O[C@](C)(C(=O)O)[C@H]2CCc3cc(C(=N)NC4CCC(N)(CO)CC4)ccc3O2)c2csc(N)n2)C(=O)N1OS(=O)(=O)O (stereo partly drawn) [Compound 70, (S)-2-((R)-6-(N-((1s,4S)-4-amino-4-(hydroxymethyl)cyclohexyl)carbamimidoyl)chroman-2-yl)-2-((((Z)-1-(2-aminothiazol-4-yl)-2-(((S)-2,2-dimethyl-4-oxo-1-(sulfooxy)azetidin-3-yl)amino)-2-oxoethylidene)amino)oxy)propanoic acid] | 4.688 µM | 0.293 µM |  |  |
| COCC[C@]1(N)CC[C@H](NC(=N)c2ccc3c(c2)CC[C@H]([C@](C)(O/N=C(\C(=O)N[C@@H]2C(=O)N(OS(=O)(=O)O)C2(C)C)c2csc(N)n2)C(=O)O)O3)CC1 [Compound 64, (S)-2-((R)-6-(N-((1r,4R)-4-amino-4-(2-methoxyethyl)cyclohexyl)carbamimidoyl)chroman-2-yl)-2-((((Z)-1-(2-aminothiazol-4-yl)-2-(((S)-2,2-dimethyl-4-oxo-1-(sulfooxy)azetidin-3-yl)amino)-2-oxoethylidene)amino)oxy)propanoic acid] | 6.25 µM | 0.7813 µM | 3.125 µM |  |
| COC[C@]1(NC(=N)c2ccc3c(c2)CC[C@H]([C@](C)(O/N=C(\C(=O)N[C@@H]2C(=O)N(OS(=O)(=O)O)C2(C)C)c2csc(N)n2)C(=O)O)O3)CC[C@H](N)CC1 [Compound 127, (S)-2-((R)-6-(N-((1r,4R)-4-amino-1-(methoxymethyl)cyclohexyl)carbamimidoyl)chroman-2-yl)-2-((((Z)-1-(2-aminothiazol-4-yl)-2-(((S)-2,2-dimethyl-4-oxo-1-(sulfooxy)azetidin-3-yl)amino)-2-oxoethylidene)amino)oxy)propanoic acid] | 12.5 µM | 0.7813 µM |  | 6.25 µM |
| CC1(C)[C@H](NC(=O)/C(=N\O[C@](C)(C(=O)O)[C@H]2CCc3cc(C(=N)N[C@H]4C[C@H]5CC[C@@H](C4)N5)ccc3O2)c2csc(N)n2)C(=O)N1OS(=O)(=O)O [Compound 136, (S)-2-((R)-6-(N-((1R,3r,5S)-8-azabicyclo[3.2.1]octan-3-yl)carbamimidoyl)chroman-2-yl)-2-((((Z)-1-(2-aminothiazol-4-yl)-2-(((S)-2,2-dimethyl-4-oxo-1-(sulfooxy)azetidin-3-yl)amino)-2-oxoethylidene)amino)oxy)propanoic acid] | 6.25 µM | 0.7813 µM | 1.563 µM |  |
| CC1(C)[C@H](NC(=O)/C(=N\O[C@](C)(C(=O)O)[C@H]2CCc3cc(C(=N)N[C@H]4C[C@@H](N)C4)ccc3O2)c2csc(N)n2)C(=O)N1OS(=O)(=O)O [Compound 7, (S)-2-((R)-6-(N-((1 s,3 S)-3-aminocyclobutyl)carbamimidoyl)chroman-2-yl)-2-((((Z)-1-(2-aminothiazol-4-yl)-2-(((S)-2,2-dimenthyl-4-oxo-1-(sulfooxy)azetidin-3-yl)amino)-2-oxoethylidene)amino)oxy)propanoic acid] | 5.729 µM | 0.3906 µM |  | 4.688 µM |
| CC1(C)[C@H](NC(=O)/C(=N\O[C@](C)(C(=O)O)[C@H]2CCc3cc(C(=N)NC4CC(N)(C[C@H](O)CO)C4)ccc3O2)c2csc(N)n2)C(=O)N1OS(=O)(=O)O (stereo partly drawn) [Compound 94, (S)-2-((R)-6-(N-((1S,3R)-3-amino-3-((S)-2,3-dihydroxypropyl)cyclobutyl)carbamimidoyl)chroman-2-yl)-2-((((Z)-1-(2-aminothiazol-4-yl)-2-(((S)-2,2-dimethyl-4-oxo-1-(sulfooxy)azetidin-3-yl)amino)-2-oxoethylidene)amino)oxy)propanoic acid] | 6.25 µM | 0.3906 µM |  | 3.125 µM |
| CC1(C)[C@H](NC(=O)/C(=N\O[C@](C)(C(=O)O)[C@H]2CCc3cc(C(=N)N[C@H]4C[C@@]5(CCNC5)C4)ccc3O2)c2csc(N)n2)C(=O)N1OS(=O)(=O)O [Compound 23, (S)-2-((R)-6-(N-((2s,4R)-6-azaspiro[3.4]octan-2-yl)carbamimidoyl)chroman-2-yl)-2-((((Z)-1-(2-aminothiazol-4-yl)-2-(((S)-2,2-dimethyl-4-oxo-1-(sulfooxy)azetidin-3-yl)amino)-2-oxoethylidene)amino)oxy)propanoic acid] | 6.25 µM | 0.7813 µM |  | 6.25 µM |
| CC1(C)[C@H](NC(=O)/C(=N\O[C@](C)(C(=O)O)[C@H]2CCc3cc(C(=N)NC4CC5(CC(N)C5)C4)ccc3O2)c2csc(N)n2)C(=O)N1OS(=O)(=O)O (stereo partly drawn) [Compound 61, (S)-2-((R)-6-(N-((2R,4r,6R)-6-aminospiro[3.3]heptan-2-yl)carbamimidoyl)chroman-2-yl)-2-((((Z)-1-(2-aminothiazol-4-yl)-2-(((S)-2,2-dimethyl-4-oxo-1-(sulfooxy)azetidin-3-yl)amino)-2-oxoethylidene)amino)oxy)propanoic acid] | 6.25 µM | 0.3906 µM | 1.563 µM |  |
| COCc1c(C(=N)N[C@H]2C[C@@H](N)C2)ccc2c1CC[C@H]([C@](C)(O/N=C(\C(=O)N[C@@H]1C(=O)N(OS(=O)(=O)O)C1(C)C)c1csc(N)n1)C(=O)O)O2 [Compound 124, (S)-2-((R)-6-(N-((1s,3S)-3-aminocyclobutyl)carbamimidoyl)-5-(methoxymethyl)chroman-2-yl)-2-((((Z)-1-(2-aminothiazol-4-yl)-2-(((S)-2,2-dimethyl-4-oxo-1-(sulfooxy)azetidin-3-yl)amino)-2-oxoethylidene)amino)oxy)propanoic acid] | 12.5 µM | 1.563 µM |  | 50 µM |
| COC[C@]1(NC(=N)c2ccc3c(c2)CC[C@H]([C@](C)(O/N=C(\C(=O)N[C@@H]2C(=O)N(OS(=O)(=O)O)C2(C)C)c2csc(N)n2)C(=O)O)O3)CC[C@@H](N)CC1 [Compound 126, (S)-2-((R)-6-(N-((1s,4S)-4-amino-1-(methoxymethyl)cyclohexyl)carbamimidoyl)chroman-2-yl)-2-((((Z)-1-(2-aminothiazol-4-yl)-2-(((S)-2,2-dimethyl-4-oxo-1-(sulfooxy)azetidin-3-yl)amino)-2-oxoethylidene)amino)oxy)propanoic acid] | 12.5 µM | 1.563 µM |  | 25 µM |
| CC1(C)[C@H](NC(=O)/C(=N\O[C@](C)(C(=O)O)[C@H]2CCc3cc(C(=N)N[C@H]4C[C@@](N)(C[C@@H](O)CO)C4)ccc3O2)c2csc(N)n2)C(=O)N1OS(=O)(=O)O [Compound 95, (S)-2-((R)-6-(N-((1R,3R)-3-amino-3-((R)-2,3-dihydroxypropyl)cyclobutyl)carbamimidoyl)chroman-2-yl)-2-((((Z)-1-(2-aminothiazol-4-yl)-2-(((S)-2,2-dimethyl-4-oxo-1-(sulfooxy)azetidin-3-yl)amino)-2-oxoethylidene)amino)oxy)propanoic acid] | 6.25 µM | 0.3906 µM |  | 6.25 µM |
